Measurements reported in US11845681B2, “Process and plant for treating wastewater containing micropollutants of pharmaceutical origin” (Cockerill Maintenance & Ingenierie S.A., priority 2018, dated 2023).

Columns and labels:
fixed biomass = conditions: constant includes sorption, desorption and biodegradation; cited from earlier work
suspended biomass = conditions: constant includes sorption, desorption and biodegradation; cited from earlier work
[1] = Purification efficiency of biologically activated carbon (BAC) columns C1 to C5; conditions: for average degradation: detailed analysis on 16 molecules, over column conditions; for effect of EBCT on degradation: longer EBCTs (e.g. 19 minutes)
Description: The activated carbon used was in GAC form, for example of the Norit 830W type (Cabot). According to the invention, however, several types of activated carbon may be used, by varying the nature of the carbon, the specific surface developed and the type of pores.
According to one embodiment, the GAC was conditioned for 2 months with the wastewater effluents coming from the MB-MBR before being placed in an acrylic glass column. Operation was monitored for approximately 5 months. The purpose of conditioning is to reduce the time before the breakthrough point of the filter, i.e. the moment when the adsorption capacity is exhausted and biodegradation is the dominant process.
The biological purification performance of micropollutants was evaluated according to the following methodology: • 1. Saturation of adsorption sites and verification by measuring the reduction in dissolved organic carbon; • 2. Evaluation of bacterial activity via measurements of oxygen consumption; • 3. Correlation analyzes between bacterial activity and micropollutant removal.
Based on the operational parameters selected for columns C1 to C5, the purification efficiencies of 12 of the 13 molecules indicative of the efficiency of the method are presented in FIG. 8.

average degradation [1]	effect of EBCT on degradation [1]	Structure (SMILES)	Kbio, Biomass Fixed (fixed biomass)	Kbio, Biomass suspended (suspended biomass)
		CC(C)NCC(O)COc1ccc(CC(N)=O)cc1 (stereo not shown) [Atenolol]	0.53-0.67 l/g biomass · day	0.67-0.9 l/g biomass · day
		NC(=O)N1c2ccccc2C=Cc2ccccc21 [Carbamazepine]	≤0.1 l/g biomass · day	≤0.1 l/g biomass · day
around 50%	better degraded with longer EBCTs	CC[C@H]1OC(=O)[C@H](C)[C@@H](O[C@H]2C[C@@](C)(OC)[C@@H](O)[C@H](C)O2)[C@H](C)[C@@H](O[C@@H]2O[C@H](C)C[C@H](N(C)C)[C@H]2O)[C@](C)(OC)C[C@@H](C)C(=O)[C@H](C)[C@@H](O)[C@]1(C)O [Clarithromycin]	≤0.2 l/g biomass · day	0.18-0.29 l/g biomass · day
around 50%	better degraded with longer EBCTs	O=C(O)Cc1ccccc1Nc1c(Cl)cccc1Cl [Diclofenac]	1.3-1.7 l/g biomass · day	≤0.1 l/g biomass · day
		CC(=O)Nc1ccc(S(=O)(=O)Nc2cc(C)on2)cc1 [N-acetylsulfamethoxazole]	0.7-1.6 l/g biomass · day	1.1-1.4 l/g biomass · day

Structure (SMILES)	average degradation [1]	effect of EBCT on degradation [1]	Kbio, Biomass Fixed (fixed biomass)	Kbio, Biomass suspended (suspended biomass)
O=P1(N(CCCl)CCCl)NCCCO1 (stereo not shown) [cyclophosphamide]	around 50%	better degraded with longer EBCTs		
